Measurements reported in patent US20040086504A1, “Cyr61 as a target for treatment and diagnosis of breast cancer” (priority 2003, published 2004).
Starred links: 1 amine or outer side, 2 acyl side, 3 side chain; linkers in the order of their positions; H or OH if unused. Positions of bridges follow the written chain, without caps; N, C: chain ends. Non-standard residues stand in square brackets, D forms with d. Residues, ends and D or L forms follow the SMILES beside them. Chains are numbered I, II in the order given. Actinocin(9to1) = Cc1c2oc3c(C)ccc(C(=O)[*:1])c3nc-2c(C(=O)[*:2])c(N)c1=O; NMeV = CN[C@H](C(=O)O)C(C)C; Sar = CNCC(=O)O

Tests used:
[1] = test system: Cyr61; assay: Cyr61 mRNA/protein expression in T47D cells (Northern/Western blot)
[2] = test system: Cyr61; assay: Cyr61 mRNA/protein expression in MDA-MB-453 cells (Northern/Western blot); format: cell-based, human; settings: for effect on DHT induction of Cyr61: co-treatment with 1 nM DHT
[3] = test system: Cyr61; assay: Cyr61 mRNA/protein expression in MCF-7 cells (Northern/Western blot); settings: for block of 17β-estradiol upregulation of Cyr61: co-treatment with 17β-estradiol
[4] = test system: Cyr61; assay: Cyr61 mRNA expression in ZR-75-1 cells (Northern blot); format: cell-based, human
Description: (§1) Incubation and analysis were performed according to techniques described in Example 1.
(§2) Total cellular RNA was isolated from cultured adenocarcinoma cells by guanidium isothiocynate lysis followed by phenol/chloroform extraction.

[5] = test system: Cyr61; assay: Cyr61 mRNA expression in MDA-MB-231 cells (Northern blot); format: cell-based, human; settings: AR- MDA-MB-231 cells
Description: as §1, §2

CCC(=O)[C@@]1(C)CC[C@H]2[C@@H]3CCC4=CC(=O)CCC4=C3CC[C@@]21C [R5020]
induction of Cyr61 mRNA transcription [1]: dose-dependent manner
effects of EGF on mRNA transcription ([1]; with EGF): stimulates

Cc1c2oc3c(C)ccc(C(=O)N[C@@H]4C(=O)N[C@H](C(C)C)C(=O)N5CCC[C@H]5C(=O)N(C)CC(=O)N(C)[C@@H](C(C)C)C(=O)O[C@@H]4C)c3nc-2c(C(=O)N[C@@H]2C(=O)N[C@H](C(C)C)C(=O)N3CCC[C@H]3C(=O)N(C)CC(=O)N(C)[C@@H](C(C)C)C(=O)O[C@@H]2C)c(N)c1=O [actinomycin D] (I: T[dV]P[Sar][NMeV] / II: T[dV]P[Sar][NMeV]; ester I:1-I:C, II:1-II:C; linker I:N-II:N via Actinocin(9to1))
effect on DHT induction of Cyr61 [2]: completely blocked
block of R5020 upregulation of Cyr61 ([1]; co-treatment with R5020): fully blocked
block of 17β-estradiol upregulation of Cyr61 [3]: fully blocked

C[C@]12CCC(=O)C[C@@H]1CC[C@@H]1[C@@H]2CC[C@]2(C)[C@@H](O)CC[C@@H]12 [DHT]
induction of Cyr61 [4]: lack of induction
maximum expression of Cyr61 mRNA and protein [2]: 8 fold
time of maximum expression of Cyr61 mRNA and protein [2]: ≤ 0.5 h
concentration of maximal expression of Cyr61 mRNA and protein ([2]; dose-dependent): 1.0 nM
EC50 ([2]; read-out: EC50 for upregulation of Cyr61 mRNA and protein): ~300 pM
expression of Cyr61 [5]: not enhanced

C[C@]12CC[C@@H]3c4ccc(O)cc4CC[C@H]3[C@@H]1CC[C@@H]2O [17β-estradiol]
upregulation of Cyr61 mRNA [3]: upregulation
effects of EGF on mRNA transcription ([3]; with EGF): stimulates

CC(C)(O)C(=O)Nc1ccc([N+](=O)[O-])c(C(F)(F)F)c1 [2-OH flutamide]
effect on DHT induction of Cyr61 [2]: completely abrogated

C[C@@H]1C[C@@H]([C@H](O)CC2CC(=O)NC(=O)C2)C(=O)[C@@H](C)C1 [cycloheximide]
Cyr61 mRNA on co-treatment with DHT compared to DHT treatment alone [2]: significant overexpression
effect on DHT induction of Cyr61 [2]: not observed
block of 17β-estradiol upregulation of Cyr61 [3]: not

EGF: epidermal growth factor (NSDSECPLSHDGYCLHDGVCMYIEALDKYACNCVVGYIGERCQYRDLKWWELR; UniProt P01133 971-1023, looked up)
time to maximal levels of Cyr61 mRNA [4]: ≤ 0.5 h
expression of Cyr61 [5]: rapidly induced
